Reference: patent US6172079A, “5-substituted-3-oxadiazolyl-1,6-naphthyridin-2(1H)-one derivatives” (Dainippon Pharmaceutical Co., Ltd., priority 1997, dated 2001)

How the values were obtained:
[1] = system: GABAA receptor complex (TBPS binding); test: TBPS Binding Assay; set-up: species or system Wistar rats; conditions: [35S]TBPS 0.4 nM, GABA 1 μM, rat cerebral cortex membrane, +% inverse agonistic, 0% antagonistic
Description: The TBPS (t-butylbicyclophosphonothionate) binding assay and the preparation of the membrane specimen were done in a similar manner to the method of Biggio, G. et al. [cf. European Journal of Pharmacology, vol.
That is, to the cerebral cortex was added a 50-fold volume of an ice-cooled buffer (a 50 mM Tris-citrate buffer containing 100 mM sodium chloride, pH 7.4) and the mixture was homogenized at 0-4° C. and then centrifuged at 20,000 g for 20 minutes. The pellets thus obtained were once subjected to homogenization in a buffer and centrifugation by the same procedure as above and then kept in freezed state at -80° C. for more than 20 hours. On the test day, the freezed pellets were thawed and then subjected twice to the homogenization-centrifugation procedure as described above.
Subsequently, the filter was moved into a liquid scintillation vial and thereto was added a liquid scintillation cocktail (ACS-II, manufactured by Amersham, USA, 10 ml) and allowed to stand for a fixed period of time. […] Separately, the same procedures were repeated in the presence of Picrotoxin to determine the non-specific binding amount. The non-specific binding amount was deducted from the total binding amount to give the specific binding amount. The binding activity of the test compound was calculated by a variation rate, i.e., a rate of the specific binding amount of the test compound to the specific binding amount in control (using a solvent).

benzodiazepine receptor = test: Benzodiazepine Receptor Binding Assay; conditions: read-out: BZP-receptor Binding IC50; [3H]-diazepam 1.5 nM; rat brain crude synaptosome membrane; 0° C., 20 min
[2] = system: ddY male mice (pentylentetrazol-induced convulsion); test: Test of Increasing Activity on Pentylentetrazol-induced Convulsion; type: in vivo; conditions: Mus musculus, 0.5 h; 20 mg/kg, po; pentylentetrazol 70 mg/kg s.c. 15 min later; read-out: Effects (number of animals) with increased pentylentetrazol-induced convulsion (converted)
Description: It is known that benzodiazepine receptor inverse agonists increase convulsion induced by pentylentetrazol [cf. Progress in Neuro-Psychopharmacology and Biological Psychiatry, vol. […] Some compounds of the present invention were tested as to the activities of increasing the pentylentetrazol-induced convulsion.
A test compound (compounds disclosed in working examples) was orally administered to ddY male mice (weight; 22-25 g, five mice/group) in an amount of 5-100 mg/kg. […] The effects were evaluated by the number of mice among five mice, of which the convulsion increasing effects were observed.

## Cc1nc(-c2cc3c(CC(C)C)nccc3[nH]c2=O)no1 [Example 3]
[1]
  TBPS binding Variation Rate: 12%
Benzodiazepine receptor
  IC50: 3.58 nM

## Cc1nc(-c2cc3c(-c4cccc(Cl)c4)nccc3[nH]c2=O)no1 [Example 7]
[1]
  TBPS binding Variation Rate: 12%
Benzodiazepine receptor
  IC50: 2.39 nM

## CCc1nc(-c2cc3c(CC)nccc3[nH]c2=O)no1 [Example 14]
[1]
  TBPS binding Variation Rate: 38%
Benzodiazepine receptor
  IC50: 9.45 nM

## CCc1nc(-c2cc3c(C(C)C)nccc3[nH]c2=O)no1 [Example 16]
[1]
  TBPS binding Variation Rate: 38%
Benzodiazepine receptor
  IC50: 3.69 nM

## CCc1nc(-c2cc3c(C4CC4)nccc3[nH]c2=O)no1 [Example 17]
[1]
  TBPS binding Variation Rate: 25%
Benzodiazepine receptor
  IC50: 0.69 nM

## CCc1nc(-c2cc3c(CC(C)C)nccc3[nH]c2=O)no1 [Example 20]
[1]
  TBPS binding Variation Rate: -13%
Benzodiazepine receptor
  IC50: 2.77 nM

## CCc1nc(-c2cc3c(C4CCC4)nccc3[nH]c2=O)no1 [Example 21]
[1]
  TBPS binding Variation Rate: 21%
Benzodiazepine receptor
  IC50: 4.21 nM

## CCc1nc(-c2cc3c(C4CCCCC4)nccc3[nH]c2=O)no1 [Example 23]
[1]
  TBPS binding Variation Rate: -23%
Benzodiazepine receptor
  IC50: 1.76 nM

## CCc1nc(-c2cc3c(CC4CCCCC4)nccc3[nH]c2=O)no1 [Example 24]
[1]
  TBPS binding Variation Rate: 22%
Benzodiazepine receptor
  IC50: 4.47 nM

## CCCc1nc(-c2cc3c(C(C)C)nccc3[nH]c2=O)no1 [Example 36]
[1]
  TBPS binding Variation Rate: 15%

## CCCc1nc(-c2cc3c(-c4ccccc4)nccc3[nH]c2=O)no1 [Example 38]
[1]
  TBPS binding Variation Rate: 25%
Benzodiazepine receptor
  IC50: 1.31 nM

## CC(C)c1nc(-c2cc3c(C(C)C)nccc3[nH]c2=O)no1 [Example 43]
[1]
  TBPS binding Variation Rate: 28%

## CC(C)c1nc(-c2cc3c(-c4ccccc4)nccc3[nH]c2=O)no1 [Example 45]
[1]
  TBPS binding Variation Rate: -9%
Benzodiazepine receptor
  IC50: 0.96 nM

## CC(C)c1nc(-c2cc3c(-c4ccc(F)cc4)nccc3[nH]c2=O)no1 [Example 47]
[1]
  TBPS binding Variation Rate: -11%
Benzodiazepine receptor
  IC50: 2.33 nM

## CCc1nccc2[nH]c(=O)c(-c3noc(C4CC4)n3)cc12 [Example 48]
[1]
  TBPS binding Variation Rate: 18%
Benzodiazepine receptor
  IC50: 1.49 nM

## CC(C)c1nccc2[nH]c(=O)c(-c3noc(C4CC4)n3)cc12 [Example 50]
[1]
  TBPS binding Variation Rate: 40%
Benzodiazepine receptor
  IC50: 0.88 nM

## O=c1[nH]c2ccnc(-c3ccccc3)c2cc1-c1noc(C2CC2)n1 [Example 52]
[1]
  TBPS binding Variation Rate: -11%
Benzodiazepine receptor
  IC50: 0.74 nM

## O=c1[nH]c2ccnc(-c3cccc(Cl)c3)c2cc1-c1noc(C2CC2)n1 [Example 55]
[1]
  TBPS binding Variation Rate: -16%
Benzodiazepine receptor
  IC50: 1.66 nM

## Cc1ccc(-c2nccc3[nH]c(=O)c(-c4noc(C5CC5)n4)cc23)cc1 [Example 58]
[1]
  TBPS binding Variation Rate: -15%
Benzodiazepine receptor
  IC50: 1.52 nM

## Cc1nc(-c2cc3c(-c4ccccc4F)nccc3[nH]c2=O)no1 [Example 87]
[1]
  TBPS binding Variation Rate: 32%
Benzodiazepine receptor
  IC50: 2.35 nM

## Cc1nc(-c2cc3c(-c4ccco4)nccc3[nH]c2=O)no1 [Example 91]
[1]
  TBPS binding Variation Rate: 38%
Benzodiazepine receptor
  IC50: 0.61 nM

## Cc1nc(-c2cc3c(-c4cccs4)nccc3[nH]c2=O)no1 [Example 92]
[1]
  TBPS binding Variation Rate: 32%
Benzodiazepine receptor
  IC50: 0.75 nM

## Cc1nc(-c2cc3c(-c4ccsc4)nccc3[nH]c2=O)no1 [Example 93]
[1]
  TBPS binding Variation Rate: 34%
Benzodiazepine receptor
  IC50: 1.75 nM

## CCc1nc(-c2cc3c(-c4ccccc4F)nccc3[nH]c2=O)no1 [Example 95]
[1]
  TBPS binding Variation Rate: 13%
Benzodiazepine receptor
  IC50: 1.09 nM

## CCc1nc(-c2cc3c(-c4ccccc4Cl)nccc3[nH]c2=O)no1 [Example 96]
[1]
  TBPS binding Variation Rate: 16%
Benzodiazepine receptor
  IC50: 2.82 nM

## CCc1nc(-c2cc3c(-c4cccc5ccccc45)nccc3[nH]c2=O)no1 [Example 100]
[1]
  TBPS binding Variation Rate: -23%
Benzodiazepine receptor
  IC50: 1.31 nM

## CCc1nc(-c2cc3c(-c4cccnc4)nccc3[nH]c2=O)no1 [Example 106]
[1]
  TBPS binding Variation Rate: 20%
Benzodiazepine receptor
  IC50: 1.96 nM

## CCc1nc(-c2cc3c(-c4ccncc4)nccc3[nH]c2=O)no1 [Example 107]
[1]
  TBPS binding Variation Rate: 17%
Benzodiazepine receptor
  IC50: 6.56 nM

## O=c1[nH]c2ccnc(-c3ccsc3)c2cc1-c1noc(C2CC2)n1 [Example 123]
[1]
  TBPS binding Variation Rate: 12%
Benzodiazepine receptor
  IC50: 1.12 nM

## Cc1noc(-c2cc3c(-c4ccccc4)nccc3[nH]c2=O)n1 [Example 175]
[1]
  TBPS binding Variation Rate: 28%
Benzodiazepine receptor
  IC50: 1.21 nM

## Cc1noc(-c2cc3c(-c4ccccc4F)nccc3[nH]c2=O)n1 [Example 176]
[1]
  TBPS binding Variation Rate: 39%
Benzodiazepine receptor
  IC50: 2.13 nM

## Cc1noc(-c2cc3c(-c4cccc(F)c4)nccc3[nH]c2=O)n1 [Example 177]
[1]
  TBPS binding Variation Rate: 29%

## Cc1noc(-c2cc3c(-c4ccc(F)cc4)nccc3[nH]c2=O)n1 [Example 178]
[1]
  TBPS binding Variation Rate: 25%
Benzodiazepine receptor
  IC50: 2.31 nM

## Cc1noc(-c2cc3c(-c4ccccc4Cl)nccc3[nH]c2=O)n1 [Example 179]
[1]
  TBPS binding Variation Rate: 37%
Benzodiazepine receptor
  IC50: 4.73 nM

## Cc1noc(-c2cc3c(-c4cccc(Cl)c4)nccc3[nH]c2=O)n1 [Example 180]
[1]
  TBPS binding Variation Rate: 13%
Benzodiazepine receptor
  IC50: 1.22 nM

## Cc1noc(-c2cc3c(-c4ccc(Cl)cc4)nccc3[nH]c2=O)n1 [Example 181]
[1]
  TBPS binding Variation Rate: 13%

## COc1ccccc1-c1nccc2[nH]c(=O)c(-c3nc(C)no3)cc12 [Example 185]
[1]
  TBPS binding Variation Rate: 19%

## COc1ccc(-c2nccc3[nH]c(=O)c(-c4nc(C)no4)cc23)cc1 [Example 187]
[1]
  TBPS binding Variation Rate: 27%
Benzodiazepine receptor
  IC50: 6.42 nM

## Cc1noc(-c2cc3c(-c4ccco4)nccc3[nH]c2=O)n1 [Example 188]
[1]
  TBPS binding Variation Rate: 34%
Benzodiazepine receptor
  IC50: 1.2 nM

## Cc1noc(-c2cc3c(-c4cccs4)nccc3[nH]c2=O)n1 [Example 189]
[1]
  TBPS binding Variation Rate: 29%
Benzodiazepine receptor
  IC50: 0.84 nM

## Cc1noc(-c2cc3c(-c4ccsc4)nccc3[nH]c2=O)n1 [Example 190]
[1]
  TBPS binding Variation Rate: 34%
Benzodiazepine receptor
  IC50: 1.57 nM

## CCc1noc(-c2cc3c(C(C)C)nccc3[nH]c2=O)n1 [Example 193]
[1]
  TBPS binding Variation Rate: 44%
Benzodiazepine receptor
  IC50: 4.1 nM

## CCc1noc(-c2cc3c(C4CC4)nccc3[nH]c2=O)n1 [Example 194]
[1]
  TBPS binding Variation Rate: 32%
Benzodiazepine receptor
  IC50: 1.06 nM

## CCc1noc(-c2cc3c(CC(C)C)nccc3[nH]c2=O)n1 [Example 196]
[1]
  TBPS binding Variation Rate: -9%
Benzodiazepine receptor
  IC50: 4.6 nM

## CCc1noc(-c2cc3c(-c4ccccc4)nccc3[nH]c2=O)n1 [Example 198]
[1]
  TBPS binding Variation Rate: 11%
Benzodiazepine receptor
  IC50: 1.03 nM

## CCc1noc(-c2cc3c(-c4ccccc4Cl)nccc3[nH]c2=O)n1 [Example 202]
[1]
  TBPS binding Variation Rate: 22%
Benzodiazepine receptor
  IC50: 2.09 nM

## CCc1noc(-c2cc3c(-c4cccc(Cl)c4)nccc3[nH]c2=O)n1 [Example 203]
[1]
  TBPS binding Variation Rate: 17%
Benzodiazepine receptor
  IC50: 1.97 nM

## CCc1noc(-c2cc3c(-c4cccc(C)c4)nccc3[nH]c2=O)n1 [Example 206]
[1]
  TBPS binding Variation Rate: -13%
Benzodiazepine receptor
  IC50: 1.16 nM

## CCc1noc(-c2cc3c(-c4ccco4)nccc3[nH]c2=O)n1 [Example 211]
[1]
  TBPS binding Variation Rate: 24%
Benzodiazepine receptor
  IC50: 0.82 nM

## CCc1noc(-c2cc3c(-c4ccsc4)nccc3[nH]c2=O)n1 [Example 212]
[1]
  TBPS binding Variation Rate: 27%
Benzodiazepine receptor
  IC50: 1.26 nM

## CCCc1noc(-c2cc3c(-c4ccco4)nccc3[nH]c2=O)n1 [Example 220]
[2]
  responders at 20 mg/kg: 80%
Benzodiazepine receptor
  IC50: 0.93 nM

## CC(C)c1noc(-c2cc3c(C4CC4)nccc3[nH]c2=O)n1 [Example 224]
[1]
  TBPS binding Variation Rate: -12%
Benzodiazepine receptor
  IC50: 3.57 nM

## CC(C)c1noc(-c2cc3c(-c4ccc(F)cc4)nccc3[nH]c2=O)n1 [Example 228]
[1]
  TBPS binding Variation Rate: -10%
Benzodiazepine receptor
  IC50: 1.59 nM

## CC(C)c1noc(-c2cc3c(-c4ccco4)nccc3[nH]c2=O)n1 [Example 229]
[1]
  TBPS binding Variation Rate: 10%
Benzodiazepine receptor
  IC50: 1.12 nM

## CC(C)c1nccc2[nH]c(=O)c(-c3nc(C4CC4)no3)cc12 [Example 233]
[1]
  TBPS binding Variation Rate: 31%
Benzodiazepine receptor
  IC50: 1.58 nM

## O=c1[nH]c2ccnc(-c3cccc(Cl)c3)c2cc1-c1nc(C2CC2)no1 [Example 240]
[1]
  TBPS binding Variation Rate: -13%
Benzodiazepine receptor
  IC50: 2.51 nM

## O=c1[nH]c2ccnc(-c3ccc(Cl)cc3)c2cc1-c1nc(C2CC2)no1 [Example 241]
[1]
  TBPS binding Variation Rate: -14%
Benzodiazepine receptor
  IC50: 6.08 nM

## Cc1ccc(-c2nccc3[nH]c(=O)c(-c4nc(C5CC5)no4)cc23)cc1 [Example 244]
[1]
  TBPS binding Variation Rate: -15%
Benzodiazepine receptor
  IC50: 4.12 nM

## O=c1[nH]c2ccnc(-c3ccco3)c2cc1-c1nc(C2CC2)no1 [Example 245]
[1]
  TBPS binding Variation Rate: 13%
Benzodiazepine receptor
  IC50: 0.81 nM
